Data as given in US11986471B2, “Compounds and methods of use” (Tango Therapeutics, Inc., priority 2018, dated 2024).

Assays:
[1] = test system: HAP1 MTAP-intact; experiment: SDMA in-cell western assay, HAP1 MTAP-intact cell line; type: cell-based; settings: Homo sapiens
Outline: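 Cells from two matched HAP1 lines, MTAP-null and MTAP-expressing at endogenous levels, are treated with compound. SDMA is then quantified by in-cell western and an IC50 is calculated for each line.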

[2] = molecular target: T1, PRMT5 (Homo sapiens, UniProt O14744); experiment: PRMT5 IC50 assay in the presence of MTA as cofactor; type: biochemical; settings: for IC50: PRMT5, MTA as cofactor
T1 construct: purchased Viva (custom protein)
Outline: (§1)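 Ki conversion: SAM arm, Ki=IC50/1.5; MTA arm, Ki=IC50/13.5. No-cofactor arm reported as IC50 only. Selectivity expressed as Ki(SAM)/Ki(MTA).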

[3] = molecular target: T1, PRMT5; experiment: PRMT5 IC50 assay with no cofactor; type: biochemical
Outline: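 Enzyme: human PRMT5. Conditions: plus SAM, plus MTA, or cofactor-free. Output: IC50 (μM); Ki via IC50/1.5 (SAM) or IC50/13.5 (MTA).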

[4] = molecular target: T1, PRMT5; experiment: PRMT5 IC50 assay in the presence of SAM as cofactor; type: biochemical
Outline: as §1

[5] = test system: HAP1 MTAP-deleted; experiment: SDMA in-cell western assay, HAP1 MTAP-deleted cell line; type: cell-based; settings: for IC50: Homo sapiens, HAP1 MTAP-deleted cell line; for MTAP Intact/Deleted Ratio: IC50 ratio HAP1 MTAP-intact / HAP1 MTAP-deleted
Outline: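 MTAP-null HAP1 cells, the deleted member of an isogenic pair with endogenously MTAP-expressing HAP1, are treated with compound. SDMA is then quantified by in-cell western and an IC50 is calculated.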

[6] = ratio between the Ki in the presence of SAM and the Ki in the presence of MTA
[7] = ratio between Ki in the presence of SAM and Ki in the presence of MTA

T1 sequence (O14744 whole entry): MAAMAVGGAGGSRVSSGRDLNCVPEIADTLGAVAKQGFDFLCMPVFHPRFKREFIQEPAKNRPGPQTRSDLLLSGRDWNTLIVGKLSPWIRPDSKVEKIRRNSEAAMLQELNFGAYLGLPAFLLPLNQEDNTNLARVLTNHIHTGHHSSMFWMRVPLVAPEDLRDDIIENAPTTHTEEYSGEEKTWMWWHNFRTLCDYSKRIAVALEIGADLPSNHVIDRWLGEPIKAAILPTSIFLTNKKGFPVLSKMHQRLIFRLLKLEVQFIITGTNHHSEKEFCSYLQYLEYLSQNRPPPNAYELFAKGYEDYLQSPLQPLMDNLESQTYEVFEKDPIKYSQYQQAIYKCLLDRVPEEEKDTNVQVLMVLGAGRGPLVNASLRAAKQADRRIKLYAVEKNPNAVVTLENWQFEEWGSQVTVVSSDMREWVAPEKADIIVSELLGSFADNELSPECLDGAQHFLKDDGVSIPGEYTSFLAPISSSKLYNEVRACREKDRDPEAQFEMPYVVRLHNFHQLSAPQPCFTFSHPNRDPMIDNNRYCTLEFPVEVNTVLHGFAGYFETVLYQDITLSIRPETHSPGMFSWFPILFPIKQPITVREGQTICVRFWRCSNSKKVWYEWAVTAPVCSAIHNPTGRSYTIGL
T1 sequence (Q9BQA1 whole entry partner): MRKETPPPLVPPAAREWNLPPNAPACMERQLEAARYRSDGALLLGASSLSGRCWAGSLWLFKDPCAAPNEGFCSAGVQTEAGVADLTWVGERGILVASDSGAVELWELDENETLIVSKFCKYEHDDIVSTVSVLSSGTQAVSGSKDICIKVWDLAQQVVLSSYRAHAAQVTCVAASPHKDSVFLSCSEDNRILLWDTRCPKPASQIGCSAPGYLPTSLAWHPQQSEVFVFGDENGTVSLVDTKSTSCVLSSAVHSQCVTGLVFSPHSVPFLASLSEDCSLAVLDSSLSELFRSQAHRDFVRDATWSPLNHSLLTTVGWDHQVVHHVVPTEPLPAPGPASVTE

| IC50 [1] [nM] | IC50 [2] [nM] | IC50 [3] [nM] | IC50 [4] [nM] | IC50 [5] [nM] | IC50 ([3]; read-out: No Co-factor IC50) [nM] | Structure (SMILES) | SAM/MTA Ratio [2, 6] | MTAP Intact/Deleted Ratio [5] | SAM/MTA Ratio [2, 7] |
| --- | --- | --- | --- | --- | --- | --- | --- | --- | --- |
| ≥ 10000 | 50 to 500 | 500 to 5000 | 50 to 500 | ≥ 10000 | – | Cc1ncoc1COc1ccc2c(c1C)CCN(C[C@@H](O)CNC(=O)c1cc(NC3CCC3)nc(N3CCN(C(C)C)CC3)c1)C2 [Compound 539, 2-(cyclobutylamino)-N-[(2S)-2-hydroxy-3-{5-methyl-6-[(4-methyl-1,3-oxazol-5-yl)methoxy]-1,2,3,4-tetrahydroisoquinolin-2-yl}propyl]-6-[4-(propan-2-yl)piperazin-1-yl]pyridine-4-carboxamide] | A (a Ki ratio greater than or equal to 10 fold between the Ki in the presence of SAM and the Ki in the presence of MTA) | C* (an IC50 ratio of less than 3 fold between the IC50 in the HAP1 MTAP-intact cell line and the HAP1 MTAP-deleted cell line) | – |
| 1000 to 10000 | 50 to 500 | – | 50 to 500 | 1000 to 10000 | 500 to 5000 | CCN1CCN(c2nc(NC3COC3)cc(C(=O)NC[C@H](O)CN3CCc4cc(OCc5cnco5)ccc4C3)n2)CC1 [Compound 353] | – | C* (an IC50 ratio of less than 3 fold between the IC50 in the HAP1 MTAP-intact cell line and the HAP1 MTAP-deleted cell line) | A (a Ki ratio greater than or equal to 10 fold between the Ki in the presence of SAM and the Ki in the presence of MTA) |
| ≥ 10000 | 500 to 5000 | ≥ 5000 | 500 to 5000 | ≥ 10000 | – | Cc1c(OCc2cnco2)ccc2c1CCN(C[C@@H](O)CNC(=O)c1cc(NC3CCCCC3)ncn1)C2 [Compound 436, 6-(cyclohexylamino)-N-[(2S)-2-hydroxy-3-{5-methyl-6-[(1,3-oxazol-5-yl)methoxy]-1,2,3,4-tetrahydroisoquinolin-2-yl}propyl]pyrimidine-4-carboxamide] | A (a Ki ratio greater than or equal to 10 fold between the Ki in the presence of SAM and the Ki in the presence of MTA) | C* (an IC50 ratio of less than 3 fold between the IC50 in the HAP1 MTAP-intact cell line and the HAP1 MTAP-deleted cell line) | – |
| ≥ 10000 | 500 to 5000 | ≥ 5000 | 500 to 5000 | ≥ 10000 | – | Cc1ncoc1COc1ccc2c(c1Cl)CCN(C[C@@H](O)CNC(=O)c1cccc(NC3COC3)c1)C2 [Compound 490, N-[(2S)-3-[5-chloro-6-[(4-methyl-1,3-oxazol-5-yl)methoxy]-1,2,3,4-tetrahydroisoquinolin-2-yl}-2-hydroxypropyl]-3-[(oxetan-3-yl)amino]benzamide] | A (a Ki ratio greater than or equal to 10 fold between the Ki in the presence of SAM and the Ki in the presence of MTA) | C* (an IC50 ratio of less than 3 fold between the IC50 in the HAP1 MTAP-intact cell line and the HAP1 MTAP-deleted cell line) | – |
| 1000 to 10000 | 50 to 500 | – | 50 to 500 | < 1000 | 500 to 5000 | O=C(NC[C@H](O)CN1CCc2cc(OCc3cnco3)ccc2C1)c1ccc(OC2CCN(Cc3ccncc3)CC2)cc1 [Compound 328] | – | C* (an IC50 ratio of less than 3 fold between the IC50 in the HAP1 MTAP-intact cell line and the HAP1 MTAP-deleted cell line) | A (a Ki ratio greater than or equal to 10 fold between the Ki in the presence of SAM and the Ki in the presence of MTA) |
| 1000 to 10000 | 50 to 500 | ≥ 5000 | 500 to 5000 | 1000 to 10000 | – | CC(C)C(=O)N1CC(Nc2cc(C(=O)NC[C@H](O)CN3CCc4cc(OCc5cnco5)ccc4C3)ccn2)C1 [Compound 479, N-[(2S)-2-hydroxy-3-[6-(oxazol-5-ylmethoxy)-3,4-dihydro-1H-isoquinolin-2-yl]propyl]-2-[[1-(2-methylpropanoyl)azetidin-3-yl]amino]pyridine-4-carboxamide] | A (a Ki ratio greater than or equal to 10 fold between the Ki in the presence of SAM and the Ki in the presence of MTA) | C* (an IC50 ratio of less than 3 fold between the IC50 in the HAP1 MTAP-intact cell line and the HAP1 MTAP-deleted cell line) | – |
| ≥ 10000 | 500 to 5000 | – | 500 to 5000 | ≥ 10000 | ≥ 5000 | Cn1nccc1COc1cc(F)c2c(c1Cl)CCN(C[C@@H](O)CNC(=O)c1ccnc(NC3CCC3)c1)C2 [Compound 282, N-[(2S)-3-[5-chloro-8-fluoro-6-[(2-methylpyrazol-3-yl)methoxy]-3,4-dihydro-1H-isoquinolin-2-yl]-2-hydroxy-propyl]-2-(cyclobutylamino)pyridine-4-carboxamide] | – | C* (an IC50 ratio of less than 3 fold between the IC50 in the HAP1 MTAP-intact cell line and the HAP1 MTAP-deleted cell line) | A (a Ki ratio greater than or equal to 10 fold between the Ki in the presence of SAM and the Ki in the presence of MTA) |
| 1000 to 10000 | 50 to 500 | 500 to 5000 | 50 to 500 | 1000 to 10000 | – | O=C(NC[C@H](O)CN1CCc2cc(OCc3cnco3)ccc2C1)c1ccnc(NC2CN(C(=O)C3CC3)C2)c1 [Compound 563, 2-[[1-(cyclopropanecarbonyl)azetidin-3-yl]amino]-N-[(2S)-2-hydroxy-3-[6-(oxazol-5-ylmethoxy)-3,4-dihydro-1H-isoquinolin-2-yl]propyl]pyridine-4-carboxamide] | A (a Ki ratio greater than or equal to 10 fold between the Ki in the presence of SAM and the Ki in the presence of MTA) | C* (an IC50 ratio of less than 3 fold between the IC50 in the HAP1 MTAP-intact cell line and the HAP1 MTAP-deleted cell line) | – |
| ≥ 10000 | 50 to 500 | – | 50 to 500 | 1000 to 10000 | ≥ 5000 | CCN(C)c1nc(NC2COC2)cc(C(=O)NC[C@H](O)CN2CCc3c(ccc(OCc4cnco4)c3Cl)C2)n1 [Compound 303] | – | C* (an IC50 ratio of less than 3 fold between the IC50 in the HAP1 MTAP-intact cell line and the HAP1 MTAP-deleted cell line) | A (a Ki ratio greater than or equal to 10 fold between the Ki in the presence of SAM and the Ki in the presence of MTA) |
| ≥ 10000 | 50 to 500 | ≥ 5000 | 50 to 500 | 1000 to 10000 | – | Cc1ncoc1COc1ccc2c(c1C)CCN(C[C@@H](O)CNC(=O)c1cc(NC3CCC3)ccn1)C2 [Compound 555, 4-(cyclobutylamino)-N-[(2S)-2-hydroxy-3-{5-methyl-6-[(4-methyl-1,3-oxazol-5-yl)methoxy]-1,2,3,4-tetrahydroisoquinolin-2-yl}propyl]pyridine-2-carboxamide] | A (a Ki ratio greater than or equal to 10 fold between the Ki in the presence of SAM and the Ki in the presence of MTA) | C* (an IC50 ratio of less than 3 fold between the IC50 in the HAP1 MTAP-intact cell line and the HAP1 MTAP-deleted cell line) | – |
| ≥ 10000 | 50 to 500 | 500 to 5000 | 50 to 500 | < 1000 | – | Cc1ncoc1COc1ccc2c(c1C)CCN(C[C@@H](O)CNC(=O)c1cc(NC3CCC3)nc(N3CCN(C)CC3)c1)C2 [Compound 503, 2-(cyclobutylamino)-N-[(2S)-2-hydroxy-3-{5-methyl-6-[(4-methyl-1,3-oxazol-5-yl)methoxy]-1,2,3,4-tetrahydroisoquinolin-2-yl}propyl]-6-(4-methylpiperazin-1-yl)pyridine-4-carboxamide] | A (a Ki ratio greater than or equal to 10 fold between the Ki in the presence of SAM and the Ki in the presence of MTA) | A* (an IC50 ratio greater than or equal to 10 fold between the IC50 in the HAP1 MTAP-intact cell line and the HAP1 MTAP-deleted cell line) | – |
| ≥ 10000 | 50 to 500 | – | 50 to 500 | < 1000 | ≥ 5000 | Cc1ncoc1COc1ccc2c(c1C)CCN(C[C@@H](O)CNC(=O)c1cc(NC3COC3)nc(N3CCCCC3)n1)C2 [Compound 391, N-[(2S)-2-hydroxy-3-{5-methyl-6-[(4-methyl-1,3-oxazol-5-yl)methoxy]-1,2,3,4-tetrahydroisoquinolin-2-yl}propyl]-6-[(oxetan-3-yl)amino]-2-(piperidin-1-yl)pyrimidine-4-carboxamide] | – | A* (an IC50 ratio greater than or equal to 10 fold between the IC50 in the HAP1 MTAP-intact cell line and the HAP1 MTAP-deleted cell line) | A (a Ki ratio greater than or equal to 10 fold between the Ki in the presence of SAM and the Ki in the presence of MTA) |
| ≥ 10000 | 50 to 500 | 500 to 5000 | 50 to 500 | 1000 to 10000 | – | CS(=O)(=O)N1CCC(Nc2cc(C(=O)NC[C@H](O)CN3CCc4cc(OCc5cnco5)ccc4C3)ccn2)CC1 [Compound 430, N-[(2S)-2-hydroxy-3-[6-(oxazol-5-ylmethoxy)-3,4-dihydro-1H-isoquinolin-2-yl]propyl]-2-[(1-methylsulfonyl-4-piperidyl)amino]pyridine-4-carboxamide] | A (a Ki ratio greater than or equal to 10 fold between the Ki in the presence of SAM and the Ki in the presence of MTA) | C* (an IC50 ratio of less than 3 fold between the IC50 in the HAP1 MTAP-intact cell line and the HAP1 MTAP-deleted cell line) | – |
